Reference: paper PMC6161602, “Synthesis and characterisation of (Z)-styrylbenzene derivatives as potential selective anticancer agents” (Journal of Enzyme Inhibition and Medicinal Chemistry, 2018)
Like-named read-outs stand apart in the source and are kept apart here.

How the values were obtained:
[1] = tested on: BEL-7402 cells; assay: MTT cell growth inhibition assay, BEL-7402; format: cell-based, human; conditions: for IC50: MTT, 48 h incubation, Bel-7402; for SI IC50 (L-02/BEL-7402): selectivity index, IC50 (L-02)/IC50 (BEL-7402)
Description: (§1) All human cell lines were used in this study. MGC-803 late-stage differentiation gastric cancer cell, A549 lung cancer cell, HepG2 hepatoma cell, AGS gastric cancer cell, BEL-7402 liver cancer cell, HCT-116 colorectal cancer cell, HeLa cervical cancer cell, SGC-7901 early differentiation gastric cancer cell, L-02 normal liver cell, MCF-7 breast cancer cell, and MCF-10A normal breast cell were initially purchased from American Type Culture Collection (ATCC, Manassas, VA, USA). RPMI-1640 media, Dulbecco’s modified Eagle’s medium (DMEM), and foetal bovine serum (FBS) were provided from Gibco Company (Grand Island, NY, USA). The cells were maintained in DMEM or RPMI-1640, supplemented with 10% FBS, 100 IU/mL penicillin and […] (Grand Island, NY, USA), and at 37 °C in a humidified atmosphere containing 5% CO2.
(§2) Cells were plated in 96-well plates at a density of 30–40% to ensure exponential growth throughout the experimental period, and then allowed to adhere for 1 day[21]. Next, the cells were treated with four serial concentrations (1, 10, 50, and 100 µM) of each compound. Taxol, CA-4, and CA-4P (phosphorylated form of CA-4) were used as positive controls. After 48 h incubation, MTT solution was added to each well at a final concentration of 2 mg/mL, and incubated for an additional 4 h. Next, the MTT solution was removed and 150 µL of dimethyl sulphoxide (DMSO)/well was added (Sigma-Aldrich, St Louis, MO, USA). The plates were shaken vigorously at RT to ensure complete solubilisation, and absorption at 492 nm was determined.
(§3) According to standard protocol, preliminary in vitro anti-proliferative activities of the synthesised compounds were evaluated by MTT assay, using nine human cancer cell lines (MGC-803, A549, HepG2, AGS, BEL-7402, HCT116, HeLa, SGC-7901, and MCF-7) and two normal human cell lines (L-02 and MCF-10A), and compared with those of CA-4, CA-4P, and taxol.

[2] = tested on: MCF-10A normal breast cell; assay: MTT cell growth inhibition assay, MCF-10A (normal); format: cell-based, human; conditions: 48 h incubation, MCF-10A normal cells
Description: as §1, §2, §3

[3] = tested on: HCT116 cells; assay: MTT cell growth inhibition assay, HCT116; format: cell-based, human; conditions: for IC50: MTT, 48 h incubation, HCT116
Description: as §1, §2, §3

[4] = tested on: SGC-7901 early differentiation gastric cancer cell; assay: MTT cell growth inhibition assay, SGC-7901; format: cell-based, human; conditions: 48 h incubation
Description: as §1, §2, §3

[5] = tested on: MGC-803 cells; assay: MTT cell growth inhibition assay, MGC-803; format: cell-based, human; conditions: for IC50: MTT, 48 h incubation, MGC-803; for SI IC50 (L-02/MGC-803): selectivity index, IC50 (L-02)/IC50 (MGC-803)
Description: as §1, §2, §3

[6] = tested on: AGS cells; assay: MTT cell growth inhibition assay, AGS; format: cell-based, human; conditions: for IC50: MTT, 48 h incubation, AGS; for SI IC50 (L-02/AGS): selectivity index, IC50 (L-02)/IC50 (AGS)
Description: as §1, §2, §3

[7] = tested on: A549 lung cancer cell; assay: MTT cell growth inhibition assay, A549; format: cell-based, human; conditions: for IC50: MTT, 48 h incubation, A549
Description: as §1, §2, §3

[8] = tested on: L-02 normal liver cell; assay: MTT cell growth inhibition assay, L-02 (normal); format: cell-based, human; conditions: 48 h incubation, L-02 normal cells
Description: as §1, §2, §3

[9] = tested on: HepG2 hepatoma cell; assay: MTT cell growth inhibition assay, HepG-2; format: cell-based, human; conditions: MTT, 48 h incubation, HepG-2
Description: as §1, §2, §3

[10] = tested on: HeLa cervical cancer cell; assay: MTT cell growth inhibition assay, HeLa; format: cell-based, human; conditions: 48 h incubation
Description: as §1, §2, §3

[11] = tested on: MCF-7 breast cancer cell; assay: MTT cell growth inhibition assay, MCF-7; format: cell-based, human; conditions: for IC50: MTT, 48 h incubation, MCF-7
Description: as §1, §2, §3

[12] = selectivity index, IC50 (L-02)/IC50 (HCT116)
[13] = selectivity index, IC50 (MCF-10A)/IC50 (MCF-7)

| Compound | IC50 ([1]; Homo sapiens) [µM] | IC50 ([3]; Homo sapiens, HCT-116) [µM] | IC50 ([4]; Homo sapiens) [µM] | IC50 ([5]; Homo sapiens, MGC-803, 48 h) [µM] | IC50 ([6]; Homo sapiens) [µM] | IC50 ([7]; Homo sapiens) [µM] | IC50 ([9]; Homo sapiens, HepG2) [µM] | melting point [°C] | IC50 ([10]; Homo sapiens) [µM] | IC50 ([11]; Homo sapiens, MCF7) [µM] | IC50 ([2]; Homo sapiens) [µM] | IC50 ([8]; Homo sapiens) [µM] | SI IC50 (L-02/BEL-7402) [1] | SI IC50 (L-02/HCT116) [3, 12] | further results |
| --- | --- | --- | --- | --- | --- | --- | --- | --- | --- | --- | --- | --- | --- | --- | --- |
| (Z)-3-(Naphthalen-1-yl)-2-(3,4,5-trimethoxyphenyl)acrylonitrile [Compound 7c] | – | – | – | – | – | – | – | – | – | – | – | – | – | – | IC50 [1]: 2.53 ± 0.12 µM; IC50 [2]: 1.03 ± 0.44 µM; IC50 [3]: 4.58 ± 0.42 µM; IC50 [4]: > 100 µM; IC50 [5]: 3.45 ± 2.11 µM; IC50 [6]: 3.51 ± 0.25 µM; IC50 [7]: > 100 µM; IC50 [8]: 8.21 ± 0.051 µM; IC50 [9]: > 100 µM; IC50 [10]: > 100 µM; IC50 [11]: 2.83 ± 0.35 µM |
| COc1cc(/C(C#N)=C/c2cccs2)cc(OC)c1OC [Compound 7a, (Z)-3-(Thiophen-2-yl)-2-(3,4,5-trimethoxyphenyl)acrylonitrile] | 1.82 ± 1.2 | 16.6 ± 10.3 | > 100 | 0.67 ± 0.22 | 8.01 ± 1.65 | > 100 | > 100 | 102 to 104 | > 100 | 15 ± 2 | 55.8 ± 10.4 | 21.2 ± 10.8 | >11.6 | >1.2 | SI IC50 (L-02/AGS) [6]: >2.6; SI IC50 (MCF-10A/MCF-7) [11, 13]: >3.7 |
| CCc1ccc(/C=C(\C#N)c2cc(OC)c(OC)c(OC)c2)cc1 [Compound 6g, (Z)-3-(4-Ethylphenyl)-2-(3,4,5-trimethoxyphenyl)acrylonitrile] | 0.65 ± 0.05 | 0.34 ± 0.01 | > 100 | 0.01 to 7.21 | 4.38 ± 2.04 | > 100 | > 100 | 76 to 78 | > 100 | > 100 | 1.19 ± 0.08 | > 100 | >153.8 | >294.1 | IC50 [5]: < 0.01 µM; SI IC50 (L-02/AGS) [6]: >22.8 |
| COc1ccc(/C=C\c2cc(OC)c(OC)c(OC)c2)cc1OP(=O)(O)O [CA-4P, reference compound] | – | – | – | – | – | – | – | – | – | – | – | – | – | >4.5 | IC50 [1]: 5.45 ± 2.04 µM; IC50 [2]: 14.6 ± 1.36 µM; IC50 [3]: 0.59 ± 0.22 µM; IC50 [4]: 0.12 ± 0.03 µM; IC50 [5]: 0.03 ± 0.02 µM; SI IC50 (L-02/MGC-803) [5]: >89.0; IC50 [6]: 4.73 ± 0.22 µM; IC50 [7]: > 100 µM; IC50 [8]: 2.67 ± 0.61 µM; IC50 [9]: > 100 µM; IC50 [10]: > 100 µM; IC50 [11]: 0.48 ± 0.25 µM; SI IC50 (MCF-10A/MCF-7) [11, 13]: >30.3 |
| COc1ccc(/C=C\c2cc(OC)c(OC)c(OC)c2)cc1O [CA-4, (Z)-2-methoxy-5–(3,4,5-trimethoxystyryl) phenol, reference compound] | 2.02 ± 0.03 | 0.16 | 0.3 | 0.06 ± 0.02 | 3.42 ± 0.03 | > 100 | > 100 | – | > 100 | 0.22 ± 0.09 | 3.23 ± 1.21 | 1.1 ± 0.03 | – | – | SI IC50 (L-02/HCT116) [3]: >6.8; SI IC50 (MCF-10A/MCF-7) [11]: >14.6 |
| COc1cc(/C(C#N)=C/c2ccc(C(C)C)cc2)cc(OC)c1OC [Compound 6f, (Z)-3-(4-Isopropylphenyl)-2-(3,4,5-trimethoxyphenyl)acrylonitrile] | 0.72 ± 0.01 | 0.17 ± 0.1 | > 100 | 7.21 ± 3.65 | 1.33 ± 0.15 | 36.62 ± 0.134 | > 100 | 156 to 158 | > 100 | 4.37 ± 2.8 | 5.79 ± 0.48 | > 100 | >138.8 | >588.2 | SI IC50 (L-02/MGC-803) [5]: >13.8; SI IC50 (L-02/AGS) [6]: >75.1; SI IC50 (L-02/A549) ([7]; selectivity index, IC50 (L-02)/IC50 (A549)): >2.7; SI IC50 (MCF-10A/MCF-7) [11, 13]: >1.3 |
| COc1ccc(/C=C(\C#N)c2cc(OC)c(OC)c(OC)c2)cc1 [Compound 6d, (Z)-3-(4-Methoxyphenyl)-2-(3,4,5-trimethoxyphenyl)acrylonitrile] | 0.75 ± 0.21 | 1.51 ± 0.05 | > 100 | 6.18 ± 0.36 | 0.05 ± 0.003 | > 100 | > 100 | 156 to 158 | > 100 | 16.7 ± 4.77 | 3.07 ± 0.18 | 4.15 ± 4.16 | >5.5 | >2.7 | – |

Further lines, with some results ahead:

| IC50 ([1]; Homo sapiens) [µM] | IC50 ([3]; Homo sapiens, HCT-116) [µM] | IC50 ([4]; Homo sapiens) [µM] | IC50 ([5]; Homo sapiens, MGC-803, 48 h) [µM] | IC50 ([6]; Homo sapiens) [µM] | IC50 ([7]; Homo sapiens) [µM] | IC50 ([9]; Homo sapiens, HepG2) [µM] | melting point [°C] | IC50 ([10]; Homo sapiens) [µM] | IC50 ([11]; Homo sapiens, MCF7) [µM] | Compound | IC50 ([2]; Homo sapiens) [µM] | IC50 ([8]; Homo sapiens) [µM] | SI IC50 (L-02/BEL-7402) [1] | SI IC50 (L-02/HCT116) [3, 12] | further results |
| --- | --- | --- | --- | --- | --- | --- | --- | --- | --- | --- | --- | --- | --- | --- | --- |
| > 100 | > 100 | > 100 | 89.2 ± 3.2 | > 100 | > 100 | > 100 | 145 to 147 | > 100 | > 100 | Cc1ccc(/C(C#N)=C/c2ccccc2)cc1 [Compound 13d, (Z)-3-Phenyl-2-(p-tolyl)acrylonitrile] | > 100 | > 100 | – | – | – |
| > 100 | > 100 | > 100 | > 100 | > 100 | > 100 | > 100 | 102 to 104 | > 100 | > 100 | Cc1ccc(/C(C#N)=C/c2ccccn2)cc1 [Compound 14b, (Z)-3-(Pyridin-2-yl)-2-(p-tolyl)acrylonitrile] | > 100 | > 100 | – | – | – |
| > 100 | > 100 | > 100 | > 100 | 27.9 ± 5.84 | > 100 | > 100 | 68 to 70 | > 100 | > 100 | Cc1ccc(/C=C(\C#N)c2ccc(C)cc2)cc1 [Compound 13a, (Z)-2,3-Di-p-tolylacrylonitrile] | > 100 | > 100 | – | – | – |
| > 100 | > 100 | > 100 | > 100 | 26.5 ± 3.89 | > 100 | > 100 | 112 to 114 | > 100 | 35 ± 14.8 | CCc1ccc(/C=C(\C#N)c2ccc(C)cc2)cc1 [Compound 13b, (Z)-3-(4-Ethylphenyl)-2-(p-tolyl)acrylonitrile] | 85.7 ± 3.12 | > 100 | – | – | – |
| > 100 | > 100 | > 100 | > 100 | > 100 | > 100 | > 100 | 128 to 130 | > 100 | > 100 | Cc1ccc(/C(C#N)=C/c2cccs2)cc1 [Compound 14a, (Z)-3-(Thiophen-2-yl)-2-(p-tolyl)acrylonitrile] | > 100 | > 100 | – | – | – |
| 77.3 ± 0.26 | 79.2 ± 5.21 | > 100 | > 100 | 66.2 ± 3.65 | > 100 | > 100 | 135 to 137 | > 100 | 33.9 ± 7.3 | COc1cc(/C=C(\C#N)c2ccc(C)cc2)cc(OC)c1OC [Compound 13c, (Z)-2-(p-Tolyl)-3-(3,4,5-trimethoxyphenyl)acrylonitrile] | > 100 | > 100 | – | – | – |
